PubChem BioAssay (NCI)
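A five-concentration, 48-hour dose response in 96-well plates underlies each endpoint, interpolated linearly between surrounding concentrations. GI50: concentration for 50% inhibition of growth. TGI marks complete inhibition of growth.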

What was measured:
Experiment in all cases: NCI-60 cell line screen, 48 h
HS 578T breast = test system: HS 578T breast
HT29 colon = test system: HT29 colon
MCF7 breast = test system: MCF7 breast
MOLT-4 leukemia = test system: MOLT-4 leukemia
NCI-H23 lung = test system: NCI-H23 lung
OVCAR-8 ovarian = test system: OVCAR-8 ovarian
PC-3 prostate = test system: PC-3 prostate
RPMI-8226 leukemia = test system: RPMI-8226 leukemia
SF-295 CNS = test system: SF-295 CNS
SK-MEL-2 melanoma = test system: SK-MEL-2 melanoma
SK-MEL-28 melanoma = test system: SK-MEL-28 melanoma
SN12C renal = test system: SN12C renal
SNB-19 CNS = test system: SNB-19 CNS
SNB-75 CNS = test system: SNB-75 CNS
T-47D breast = test system: T-47D breast
UACC-62 melanoma = test system: UACC-62 melanoma

Structure (SMILES) | TGI (HS 578T breast) [µM] | TGI (HT29 colon) [µM] | TGI (MCF7 breast) [µM] | TGI (MOLT-4 leukemia) [µM] | TGI (NCI-H23 lung) [µM] | TGI (OVCAR-8 ovarian) [µM] | TGI (PC-3 prostate) [µM] | TGI (RPMI-8226 leukemia) [µM] | TGI (SF-295 CNS) [µM] | TGI (SK-MEL-2 melanoma) [µM] | TGI (SK-MEL-28 melanoma) [µM] | TGI (SN12C renal) [µM] | TGI (SNB-19 CNS) [µM] | TGI (SNB-75 CNS) [µM] | TGI (T-47D breast) [µM] | TGI (UACC-62 melanoma) [µM] | GI50 (MCF7 breast) [µM] | GI50 (MOLT-4 leukemia) [µM] | GI50 (SNB-75 CNS) [µM] | GI50 (UACC-62 melanoma) [µM]
COc1cc(O)c2c(=O)c3c(C)cccc3n(C)c2c1 | > 10 | > 10 | > 10 | > 10 | > 10 | > 10 | > 10 | > 10 | > 10 | > 10 | > 10 | > 10 | > 10 | > 10 | > 10 | > 10 |  |  |  | 
COC(=O)/C=C\C(C#N)(C#N)N=Cc1ccccc1 | 36.2 | 19.4 | 5.73 | 3.85 | 25.3 | 4.38 | 13.1 | 2.88 | 36.1 | 32.9 | 14.3 | 26.6 | > 58.4 | 14.5 | 3.88 | 28 |  |  |  | 
C(=N\Nc1ccc(-c2nc3ccccc3[nH]2)cc1)/c1c(-c2ccc(Cc3ccccc3)cc2)[nH]c2ccccc12 | 23 | > 57.9 | > 48.8 | > 37.3 | 59.5 | > 54.7 | 39.2 | > 32.5 | 27.9 | 20 | > 100 | > 100 | > 77.3 | 41.2 | 98.4 | > 54.3 |  |  |  | 
C=CCc1cc(-c2cc(CC=C)c(O)c(CN(CC)CC)c2)cc(CN(CC)CC)c1O | > 100 | 40.9 | > 100 | > 100 | > 100 | > 100 | > 100 | > 88.1 | > 88 | 60.3 | 80.6 | > 100 | > 100 | > 100 | > 100 | 48.5 |  |  |  | 
COc1ccc(NC(=O)CC(=O)n2nc(C)c(N=Nc3cccc(C)c3)c2C)cc1 | > 100 | > 100 | > 100 | > 100 | > 100 | > 100 | > 100 | > 100 | > 100 | > 100 | > 100 | > 100 | > 100 | > 100 | > 100 | > 100 |  |  |  | 
NNc1nncc2[nH]cnc12 | > 100 | > 100 | > 100 | > 100 | > 100 | > 100 | > 100 | > 100 | > 100 | > 100 | > 100 | > 100 | > 100 | > 100 | > 100 | > 100 |  |  |  | 
CCCC(O)c1cn(C(NC(=O)c2ccccc2)P(=O)(OCC)OCC)nn1 (stereo not drawn) | > 100 | > 100 | > 100 | > 100 | > 100 | > 100 | > 100 | > 100 | > 100 | > 100 | > 100 | > 100 | > 100 | > 100 | > 100 | > 100 |  |  |  | 
Cc1cn(CCCCCCC2=NCCCN2)c(=O)[nH]c1=O | > 100 | > 100 | > 100 | > 100 | > 100 | > 100 | > 100 | > 100 | > 100 | > 100 | > 100 | > 100 | > 100 | > 100 | > 100 | > 100 |  |  |  | 
C(/Cc1ccc2c(c1)OCO2)=N\NC1=NCCN1 | > 100 | > 100 | > 100 | > 100 | > 100 | > 100 | > 100 | > 100 | > 100 | > 100 | > 100 | > 100 | > 100 | > 100 | > 100 | > 100 |  |  |  | 
CSc1c(C#N)c(N)nc2c(N=Nc3ccc(Br)cc3)c(N)nn12 | 5.81 | 29 | 8.63 | 27.3 | 14.4 | 23.4 | 23.5 | 54.7 | 25.3 | 17.2 | 30.8 | 13.4 | 69.6 | 28.8 | 4.74 | 19.4 |  |  |  | 
COc1ccc(/C=C/C(=O)c2cc(C(C)(C)C)c(O)c(C(C)(C)C)c2)cc1OC | > 77.2 | 60 | 32.4 | > 49.6 | > 68.9 | > 100 | > 46.4 | 12.8 | > 71.1 | 16.5 | > 100 | 65.5 | 64.1 | 13.5 | 24.4 | 40.1 |  |  |  | 
COC(OC)C1OCC(n2cc(F)c(=O)[nH]c2=O)C1O (stereo not drawn) | > 100 | > 100 | > 100 | > 100 | > 100 | > 100 | > 100 | > 100 | > 100 | > 100 | > 100 | > 100 | > 100 | > 100 | > 100 | > 100 |  |  |  | 
COC(=O)C1=C(OC(=O)/C=C/c2ccccc2)C(C(=O)OC)[C@@]2(O)[C@@H](C(=O)OC)[C@H](C)C[C@@H]1[C@@H]2C(=O)OC (stereo partly drawn) | 50.1 | > 100 | 91.4 | > 100 | 48.8 | 46.2 | > 100 | > 100 | 79.9 | 91.1 | > 100 | 41.7 | > 100 | 73.1 | 84.4 | 33.1 |  |  |  | 
CCCCCc1cc2cc3c(c(O)c2c(=O)[nH]1)C1(CCC3)C(O)=c2c(=O)c3c(=O)cc(OC)c(=O)c=3c(=O)c2=C1O (stereo not drawn) | 5.42 | 3.11 | 2.06 | 4.01 | 3.37 | 3.25 | 3.66 | > 18.7 | 11 | 3.68 | 3.68 | 3.91 | 3.86 | 3.67 | 2.76 | 3.29 |  |  |  | 
CSC1C(=O)Nc2ccc3ccccc3c21 (stereo not drawn) | 46 | > 100 | > 100 | > 100 | > 100 | 34.9 | 35 | 60.7 | > 100 | > 100 | > 100 | 41.9 | > 100 | 70.5 | 29.4 | 35.9 |  |  |  | 
CCOC(=O)c1c(Br)c(-c2ccc(OC)cc2)c(Br)n1C | 47.6 | 56.3 | 39.7 | > 100 | > 100 | > 100 | > 100 | > 100 | 56.1 | 39.1 | > 100 | 49.2 | 97.7 | > 100 | 82.1 | 47.6 | 15.9 | 17.8 | 63.4 | 13
C=C1c2nc3ccccc3n2C=C(c2ccc(C)cc2)N1c1ccc(C)cc1 | > 100 | > 100 | > 100 | > 100 | > 100 | > 100 | > 100 | > 89.8 | > 100 | > 100 | > 100 | > 100 | > 100 | > 100 | > 100 | > 100 |  |  |  | 
O=C(c1ccccc1)n1cc(-c2ccccc2)c2c(=O)[nH]cnc21 | > 100 | > 100 | > 100 | > 100 | > 100 | > 100 | > 100 | > 100 | > 100 | > 100 | > 100 | > 100 | > 100 | > 100 | > 100 | > 100 |  |  |  | 
CC(=O)OCc1cncn1S(=O)(=O)c1ccc(C)cc1 | > 100 | > 100 | > 100 | > 100 | > 100 | > 100 | > 100 | > 100 | > 100 | > 100 | > 100 | > 100 | > 100 | > 100 | > 100 | > 100 |  |  |  | 
